The text below walks through data of patent publication US9193744B2, “Heterocyclic nuclear hormone receptor modulators” (AbbVie Inc., priority 2012, dated 2015).

Where two headings read alike, the source gives them in different places.

Test [1] concerns the target T1, Glucocorticoid Receptor (GR) (Homo sapiens, UniProt P04150).
T1 construct: purchased Invitrogen P2893
T1 sequence (P04150 1-777): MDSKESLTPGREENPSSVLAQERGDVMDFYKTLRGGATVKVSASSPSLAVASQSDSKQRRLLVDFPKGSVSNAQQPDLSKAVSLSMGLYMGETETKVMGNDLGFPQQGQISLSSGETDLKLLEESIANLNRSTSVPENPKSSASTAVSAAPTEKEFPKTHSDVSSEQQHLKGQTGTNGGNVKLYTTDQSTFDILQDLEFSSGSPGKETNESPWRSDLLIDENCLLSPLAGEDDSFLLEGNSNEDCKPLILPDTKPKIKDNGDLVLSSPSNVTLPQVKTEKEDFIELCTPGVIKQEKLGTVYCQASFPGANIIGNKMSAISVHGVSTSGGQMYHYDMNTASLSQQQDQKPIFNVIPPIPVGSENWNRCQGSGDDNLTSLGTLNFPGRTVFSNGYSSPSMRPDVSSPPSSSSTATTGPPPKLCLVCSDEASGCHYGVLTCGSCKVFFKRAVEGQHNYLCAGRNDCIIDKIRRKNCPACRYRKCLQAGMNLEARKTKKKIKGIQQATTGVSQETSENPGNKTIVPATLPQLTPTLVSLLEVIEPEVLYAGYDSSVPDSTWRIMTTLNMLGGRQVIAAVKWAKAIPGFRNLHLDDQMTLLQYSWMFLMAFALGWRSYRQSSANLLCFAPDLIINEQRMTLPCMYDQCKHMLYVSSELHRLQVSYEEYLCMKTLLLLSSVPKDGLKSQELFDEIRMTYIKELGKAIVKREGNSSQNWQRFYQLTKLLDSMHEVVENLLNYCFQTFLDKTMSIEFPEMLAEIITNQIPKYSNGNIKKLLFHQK
Briefly: GR Fluorescence Polarization Assay (PolarScreen Glucocorticoid Receptor Competitor Assay, Red). As to conditions: fluorescence polarization binding ranges. As to the method:
Fluorescence polarization assays were carried out using the PolarScreen™ Glucocorticoid Receptor Competitor Assay, Red from Invitrogen (P2893). The assay buffer was prepared according to the manufacturer's protocol and used to dilute the fluorescent glucocorticoid and GR. Compounds were prepared and serial diluted 1:4 in DMSO. Compound, fluorescent glucocorticoid and GR were added in a final volume of 20 μL and incubated overnight at 4° C. Fluorescent polarization was measured on the PerkinElmer Envision®. Fluorescence polarization binding ranges measured using GR Fluorescence Polarization Assay: […]
For orientation: In fluorescence polarisation assays a small probe gives low polarisation when free and higher when bound to something large.

Test [2] concerns IL-6. Put plainly: A549 Cell Assay to Measure Inflammation Markers (inhibition of IL-1β-induced IL-6). As to conditions: A549 cells, read-out: A549 cell assay. Type of test: cell-based. The procedure:
A549 Cell Assay to Measure Inflammation Markers
A549 cells were seeded (3E4 cells/well) in 96-well assay plates in culture medium (100 μL/well., F-12 K base media, supplemented with 10% FBS and 100 μ/mL-100 μg/mL Pen-Strep.) After overnight culture in an incubator set to 37° C., 4.9% CO2, and 90% humidity, media was removed from adherent cells by aspiration and replaced with 100 μL/well Assay Medium (F-12 K base media supplemented with 5% charcoal stripped calf sera and 100 U/mL-100 μg/mL Pen-Strep.) Compounds were prepared in DMSO and serial diluted (1:3, 1:4, or 1:5) with DMSO in Dilution Plate(s) to give 10 dilution points for each compound tested. Further dilution (1:250) of compound was made into assay medium and 50 μL/well diluted drug or DMSO/media control was applied to cells. After a 1 h pre-incubation in a temperature, CO2, and humidity controlled incubator, set to 37° C., 50 μL/well of 4 ng/mL IL-1β diluted in assay media, was applied to cultures. Assay plates, with a final volume of 200 μL/well and final concentrations of 0.1% DMSO and 1 ng/mL IL-1β were returned to incubator for a four h incubation period. Next, plates were spun at 183 g (1000 rpm in Beckman/Coulter Allegra 6KR centrifuge) for 10 min. Cell-free supernatant (150 μL/well) was collected and IL-6 was measured by MSD kit, following protocol of manufacturer, and using MSD SECTOR Imager 6000 instrument. Potency of compounds to inhibit IL-6 was determined using the percent reduction of measured IL-6 in wells with compound compared to control wells without drug, and relative to (100% inhibition) positive control compound of 1 μM prednisolone. Results were represented as IC50 and Emax values. To verify that viable cell numbers were similar across plate(s), and not confounding compound IC50 data interpretation, the remaining 50 μL/well of cells and media (after removal of supernatant) were used to run Cell Titer-Glo Assay per directions of manufacturer.

For `CC[C@@]12CC[C@](O)(COC)C[C@@H]1CCCc1cc3c(cnn3-c3ccnc(C)c3)cc12` (racemic) [Example 45], the IC50 in test [1] and in test [2] was < 100 nM throughout. For `OC[C@@]12CC[C@](O)(C(F)(F)F)C[C@H]1CCCc1cc3c(cnn3-c3ccc(F)cc3)cc12` (racemic) [Example 80], the IC50 in test [1] and in test [2] (Homo sapiens) was < 100 nM each time.

For `CC[C@@]12CC(=O)[C@](C)(O)C[C@@H]1CCCc1cc3c(cnn3-c3ccc(F)cc3)cc12` (racemic) [Example 100, rac-(3R,4aS,12bR)-12b-Ethyl-9-(4-fluorophenyl)-3-hydroxy-3-methyl-1,3,4,4a,5,6,7,12b-octahydrobenzo[6,7]cyclohepta[1,2-f]indazol-2(9H)-one], the IC50 in test [1] and in test [2] (Homo sapiens) was < 100 nM each time. On to `CC[C@@]12CC[C@](O)(COC)C[C@@H]1CCOc1cc3c(cnn3-c3ccc(F)cc3)cc12` (racemic) [Example 129], for which the IC50 in test [1] and in test [2] was < 100 nM each time. In the case of `CC[C@@]12CC[C@](O)(COC)C[C@@H]1CCOc1cc3c(cnn3-c3ccncc3)cc12` (racemic) [Example 132], the IC50 in test [1] and in test [2] (Homo sapiens) was < 100 nM throughout. Take `CC[C@@]12CC[C@](O)(COC)C[C@@H]1CCOc1cc3c(cnn3-c3nnc(C)s3)cc12` (racemic) [Example 139]: the IC50 in test [1] was 100 to 1000 nM. For the molecule `C[C@@]1(O)CC[C@@]2(Cc3ccccn3)c3cc4cnn(-c5ccc(F)cc5)c4nc3CCC[C@H]2C1` (racemic) [Example 148, rac-(3R,4aS,12bS)-9-(4-Fluorophenyl)-3-methyl-12b-(pyridin-2-ylmethyl)-1,2,3,4,4a,5,6,7,9,12b-decahydrobenzo[3,4]cyclohepta[1,2-b]pyrazolo[4,3-e]pyridin-3-ol], the IC50 in test [1] and in test [2] (Homo sapiens) was < 100 nM throughout. For the molecule `CC[C@]12CC[C@](O)(C(F)(F)F)C[C@@H]1CCCc1nc3c(cnn3-c3ccc(F)cc3)cc12` (racemic) [Example 151, rac-(3R,4aS,12bS)-12b-Ethyl-9-(4-fluorophenyl)-3-(trifluoromethyl)-1,2,3,4,4a,5,6,7,9,12b-decahydrobenzo[3,4]cyclohepta[1,2-b]pyrazolo[4,3-e]pyridin-3-ol], the IC50 in test [1] lay within 1000 to 10000 nM; in test [2] (Homo sapiens), 100 to 1000 nM.

In the case of `CC[C@@]12CC[C@](O)(C(F)(F)F)C[C@H]1CCCc1nc3c(cnn3-c3ccc(F)cc3)cc12` (racemic) [Example 152, rac-(3R,4aR,12bR)-12b-ethyl-9-(4-fluorophenyl)-3-(trifluoromethyl)-1,2,3,4,4a,5,6,7,9,12b-decahydrobenzo[3,4]cyclohepta[1,2-b]pyrazolo[4,3-e]pyridin-3-ol], the IC50 in test [1] and in test [2] (Homo sapiens) was < 100 nM each time. For the molecule `O[C@@]1(C(F)(F)F)CC[C@@]2(Cc3ccccn3)c3cc4cnn(-c5ccc(F)cc5)c4nc3CCC[C@H]2C1` (racemic) [Example 155, rac-(3R,4aR,12bR)-9-(4-Fluorophenyl)-12b-(pyridin-2-ylmethyl)-3-(trifluoromethyl)-1,2,3,4,4a,5,6,7,9,12b-decahydrobenzo[3,4]cyclohepta[1,2-b]pyrazolo[4,3-e]pyridin-3-ol], the IC50 in test [1] was 100 to 1000 nM; in test [2] (Homo sapiens), > 10000 nM. The corresponding values for `O[C@]1(C(F)(F)F)CC[C@@]2(Cc3ccccn3)c3cn4cnc(-c5ccc(F)cc5)c4cc3CCC[C@@H]2C1` (racemic) [Example 166, rac-(3R,4aR,13bS)-9-(4-fluorophenyl)-13b-(pyridin-2-ylmethyl)-3-(trifluoromethyl)-2,3,4,4a,5,6,7,13b-octahydro-1H-benzo[3,4]cyclohepta[1,2-d]imidazo[1,5-a]pyridin-3-ol] are < 100 nM and < 100 nM. Take `COC[C@@]1(O)CC[C@@]2(Cc3ccccn3)c3cn4cnc(-c5ccc(F)cc5)c4cc3CCC[C@H]2C1` (racemic) [Example 167, rac-(3R,4aS,13bS)-9-(4-Fluorophenyl)-3-(methoxymethyl)-13b-(pyridin-2-ylmethyl)-2,3,4,4a,5,6,7,13b-octahydro-1H-benzo[3,4]cyclohepta[1,2-d]imidazo[1,5-a]pyridin-3-ol]: the IC50 in test [1] and in test [2] (Homo sapiens) was < 100 nM each time. In test [1], `O=C(NC1CC1)[C@@]12CC[C@](O)(C(F)(F)F)C[C@H]1CCCc1cc3c(cnn3-c3ccc(F)cc3)cc12` (single isomer, unassigned) [Example 86] registered an IC50 of 100 to 1000 nM. Turning to `CC[C@]12CC[C@@](O)(COC)C[C@H]1CCOc1cc3c(cnn3-c3ccnc(C)c3)cc12` (single isomer, unassigned) [Example 127], the IC50 in test [1] was 100 to 1000 nM. `C[C@]1(O)CC[C@]2(Cc3ccccn3)c3cc4cnn(-c5ccc(F)cc5)c4nc3CCC[C@@H]2C1` (single isomer, unassigned) [Example 150] yielded an IC50 in test [1] of 100 to 1000 nM.

As to `Cc1cc(-n2ncc3cc4c(cc32)CCC[C@@H]2C[C@@](C)(O)CC[C@]42Cc2ccccn2)ccn1` [Example 61], in test [1], the IC50 lay in the range of 100 to 1000 nM. As for `Cc1cc(-n2ncc3cc4c(cc32)CCC[C@H]2C[C@@](O)(CC#N)CC[C@@]42Cc2ccccn2)ccn1` [Example 70], in test [2], the IC50 was < 100 nM. Turning to `CC[C@]12CC[C@@](OP(=O)(O)O)(C(F)(F)F)C[C@@H]1CCCc1cc3c(cnn3-c3ccc(F)cc3)cc12` [Example 101, (3S,4aS,12bS)-12b-Ethyl-9-(4-fluorophenyl)-3-(trifluoromethyl)-1,2,3,4,4a,5,6,7,9,12b-decahydrobenzo[6,7]cyclohepta[1,2-f]indazol-3-yl dihydrogen phosphate], in test [1], the IC50 lay within 100 to 1000 nM. Still for that read-out and setting: in the case of `CC[C@]12CC[C@@](O)(COC)C[C@H]1CCOc1cc3c(cnn3-c3ccnc(OC)c3)cc12` [Example 137] it was 1000 to 10000 nM.

As to `CC[C@]12CC[C@@](O)(COC)C[C@H]1CCOc1cc3c(cnn3-c3ccnc(C(F)(F)F)c3)cc12` [Example 140], the IC50 in test [1] lay within 100 to 1000 nM. Still for that read-out and setting: in the case of `CC[C@]12CC[C@](C)(O)C[C@H]1CCOc1cc3c(cnn3-c3ccnc(C)c3)cc12` [Example 142] it was 100 to 1000 nM. The same measure, in the same setting: to `CC[C@]12CC[C@@](O)(CC#N)C[C@H]1CCOc1cc3c(cnn3-c3ccnc(C)c3)cc12` [Example 144] belongs 100 to 1000 nM. On the same count and under the same terms, to `COC[C@]1(O)CC[C@]2(Cc3ccccn3)c3cc4cnn(-c5ccc(F)cc5)c4nc3CCC[C@H]2C1` [Example 157] belongs 100 to 1000 nM. In test [1], `COC[C@]1(O)CC[C@]2(Cc3ncccn3)c3cc4cnn(-c5ccc(F)cc5)c4nc3CCC[C@@H]2C1` [Example 159] registered an IC50 of 100 to 1000 nM. Regarding `C[C@@]1(O)CC[C@@]2(Cc3ncccn3)c3cc4cnn(-c5ccc(F)cc5)c4nc3CCC[C@H]2C1` [Example 161], in test [1], the IC50 was 100 to 1000 nM.

As to `N#CC[C@]1(O)CC[C@]2(Cc3ccccn3)c3cc4cnn(-c5ccc(F)cc5)c4nc3CCC[C@@H]2C1` [Example 164], the IC50 in test [1] lay in the range of 100 to 1000 nM. On the same count and under the same terms, to `CC[C@]12CC[C@@](OS(N)(=O)=O)(C(F)(F)F)C[C@@H]1CCCc1cc3c(cnn3-c3ccc(F)cc3)cc12` [Example 170, (3S,4aS,12bS)-12b-ethyl-9-(4-fluorophenyl)-3-(trifluoromethyl)-1,2,3,4,4a,5,6,7,9,12b-decahydrobenzo[6,7]cyclohepta[1,2-f]indazol-3-yl sulfamate] belongs 100 to 1000 nM.
